Experimental findings from paper PMC12385147, “Discovery of Novel 2-Substituted Aniline Pyrimidine Based Derivatives as Potent Mer/c-Met Dual Inhibitors with Improvement Bioavailability” (Biomolecules, 2025) are described below.

Data set [1] addresses T1, Mer kinase (Homo sapiens, UniProt Q12866).
T1 construct: purchased Invitrogen (Shanghai, China)
T1 sequence (Q12866 21-999): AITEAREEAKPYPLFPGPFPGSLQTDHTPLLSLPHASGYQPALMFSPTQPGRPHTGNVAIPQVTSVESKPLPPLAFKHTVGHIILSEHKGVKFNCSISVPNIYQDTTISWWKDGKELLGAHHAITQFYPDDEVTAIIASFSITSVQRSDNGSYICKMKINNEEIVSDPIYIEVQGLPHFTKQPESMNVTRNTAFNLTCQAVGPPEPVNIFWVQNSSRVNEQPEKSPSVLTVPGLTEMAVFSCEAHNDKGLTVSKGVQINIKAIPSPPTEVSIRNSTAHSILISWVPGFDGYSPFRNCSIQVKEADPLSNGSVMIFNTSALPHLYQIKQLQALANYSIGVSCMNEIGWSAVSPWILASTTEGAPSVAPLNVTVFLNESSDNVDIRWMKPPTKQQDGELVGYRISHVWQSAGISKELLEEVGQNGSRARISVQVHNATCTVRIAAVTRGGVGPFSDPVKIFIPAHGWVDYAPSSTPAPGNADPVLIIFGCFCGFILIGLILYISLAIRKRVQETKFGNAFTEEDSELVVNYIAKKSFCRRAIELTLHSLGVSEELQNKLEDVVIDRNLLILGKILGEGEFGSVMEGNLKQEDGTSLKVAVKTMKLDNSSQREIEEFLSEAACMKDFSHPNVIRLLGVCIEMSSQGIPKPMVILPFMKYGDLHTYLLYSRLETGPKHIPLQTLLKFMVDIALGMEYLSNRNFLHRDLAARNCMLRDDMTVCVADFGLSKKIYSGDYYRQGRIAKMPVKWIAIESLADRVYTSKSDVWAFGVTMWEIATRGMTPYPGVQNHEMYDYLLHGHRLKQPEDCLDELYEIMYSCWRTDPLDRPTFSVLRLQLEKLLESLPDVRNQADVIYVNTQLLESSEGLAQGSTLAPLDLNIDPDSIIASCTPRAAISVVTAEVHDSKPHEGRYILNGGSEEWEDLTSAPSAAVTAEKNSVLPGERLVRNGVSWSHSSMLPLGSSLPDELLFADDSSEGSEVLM
The data set can be described thus: Mer kinase inhibition assay (TK-Sub-Biotin / cryptate detection). Format: biochemical. Conditions: means from three independent experiments.

The nature of data set [2]: Liver microsome stability assay. Format: in vitro ADME, human. (Liver microsomes are vesicles of endoplasmic reticulum, rich in cytochrome P450 enzymes.)
The test system of data set [3] is HepG2. The data set can be described thus: Antiproliferation CCK-8 assay, HepG2. Format: cell-based. Particulars: Homo sapiens, CCK-8, 72 h. Here is the method:
The HepG2, MDA-MB-231, and HCT116 cell lines were derived from our own laboratory (the laboratory of our collaborator, Dr. Xiaolei Zhou, at College of Food Science and Biology in Hebei University of Science and Technology). The antiproliferative activities were assessed using the CCK-8 assay. Cell viability was measured according to the manufacturer’s instructions for the Cell Counting Kit-8 (Meilunbio, Dalian, China). In this assay, 2.5 × 10^3 cells per well were seeded into 96-well plates.
After an initial 12 h incubation, cancer cells were exposed to varying concentrations of compound 17c for 72 h. Following CCK-8 solution addition and 2 h incubation, the absorbance at 450 nm was measured using a BioTek Synergy HTX microplate reader. Experiments included triplicate wells with three independent replicates. The IC50 values for compound 17c were derived from an analysis of the dose–response curves in GraphPad PRISM 9.5.

Data set [4] relates to PC-3 prostate cancer. The data set can be described thus: Antiproliferation CCK-8 assay, PC-3. Format: cell-based.
Data set [5] can be described thus: Plasma protein binding, equilibrium dialysis, rat plasma. Format: in vitro ADME. For orientation: In equilibrium dialysis free small molecules cross a membrane that holds back macromolecules.
Data set [6] deals with c-Met kinase phosphorylation. The data set can be described thus: Western blot, c-Met phosphorylation in HCT116 cells. Type of data set: cell-based, human. Conditions: 2.5 μM, 24 h, compared to the positive control. Here is the method: Western blot assay was performed according to established protocols. HCT colon cancer cells were exposed to the specified concentration of compound 17c for 24 h, after which whole cell lysates were prepared using RAPI cell lysis buffer (Beyotime Institute of Biotechnology, Shanghai, China). Primary antibodies, purchased from Beyotime Institute of Biotechnology, were diluted at a ratio of 1:2000. The protein bands on polyvinylidene fluoride membranes were visualized and analyzed using Glyco Band-Scan Software Version 4.50. The antibody details are as follows:
Name: Phospho-c-Met (Tyr1234) antibody, Species: Rabit, Sequence: synthesized peptide derived from human c-Met around the Phosphorylation site of Tyr1234, Dilution: 1:2000, RRID number: AB_2834564, Catalogue number: AF3129, Supplier: Affinity Biosciences (Beijing, China).

One may read the IC50 as the concentration at which inhibition is half-maximal. As to `Cc1c(C(=O)Nc2ccc(Oc3ccnc(Nc4cccc(OC5CCN(C)CC5)c4)n3)cc2)c(=O)n(-c2ccccc2)n1C` [compound 17c, 1,5-dimethyl-N-(4-((2-((3-((1-methylpiperidin-4-yl)oxy)phenyl)amino)pyrimidin-4-yl)oxy)phenyl)-3-oxo-2-phenyl-2,3-dihydro-1H-pyrazole-4-carboxamide], the IC50 in data set [1] worked out at 6.4 ± 1.8 nM; in data set [3] it was 460 ± 60 nM; in data set [4] (Homo sapiens, PC-3, CCK-8, read-out: IC50 PC-3 cells) it was 3790 ± 1090 nM. In addition, the “CL (intrinsic clearance)” value in data set [2] (human liver microsomes) is 23.6 µL/min/mg. Further, the microsomal CLint in data set [2] (human, liver microsomes, pH 7.4, human liver microsomes, read-out: CL (intrinsic clearance)) is 26 µL/min/mg. Moreover, the “times more effective than cabozantinib” value in data set [4] (PC-3 cells) is 4.1 times. The “Mean Fb” value in data set [5] (1 μM) was determined as 98.2%. Moreover, the “Stability (%)” value in data set [5] (1 μM, 6 h at 37 °C) is 102.2%. The fraction unbound at 6 h, 1 μM in data set [5] (fraction, read-out: Mean Fu) amounted to 0.0178. In addition, the “inhibition of c-Met kinase phosphorylation” value in data set [6] is given as “significantly inhibited the phosphorylation”.
